Legend:
[1] = test system: blackgrass; assay: Test A postemergence; type: in vivo, Alopecurus myosuroides
Procedure, shortened: (§1)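 Weeds and crops in loam–sand blend were sprayed preemergence onto soil or postemergence at 2–10 cm (one- to two-leaf stage). Test chemicals were in a non-phytotoxic solvent with surfactant. After 10 days in the greenhouse, injury was rated visually against untreated controls on a 0 (no effect) to 100 (complete control) scale.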

[2] = test system: pigweed, palmer; assay: Test A postemergence; type: in vivo, Amaranthus palmeri
Procedure, shortened: as §1

[3] = test system: sedge, umbrella; assay: Test B flooded paddy test; type: in vivo, Cyperus difformis; conditions: 250 g ai/ha, Flood, 13 days, 0 to 100 scale (0 no effect, 100 complete control)
Procedure, shortened: (§2)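 Each species was raised to the 2-leaf stage. At treatment, each pot received floodwater 3 cm deep, with the chemical delivered into the water. Greenhouse holding followed for 13 days, then percent control was estimated visually versus untreated pots.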

[4] = test system: kochia; assay: Test A preemergence; type: in vivo, Bassia scoparia
Procedure, shortened: as §1

[5] = test system: corn; assay: Test A preemergence; type: in vivo, Zea mays
Procedure, shortened: as §1

[6] = test system: foxtail, giant; assay: Test A preemergence; type: in vivo, Setaria faberi
Procedure, shortened: as §1

[7] = test system: ryegrass, Italian; assay: Test A preemergence; type: in vivo, Lolium multiflorum
Procedure, shortened: as §1

[8] = test system: kochia; assay: Test A postemergence; type: in vivo, Bassia scoparia
Procedure, shortened: as §1

[9] = test system: rice; assay: Test B flooded paddy test; type: in vivo, Oryza sativa; conditions: 250 g ai/ha, Flood, 13 days, 0 to 100 scale (0 no effect, 100 complete control)
Procedure, shortened: as §2

[10] = test system: ducksalad; assay: Test B flooded paddy test; type: in vivo, Heteranthera limosa; conditions: 250 g ai/ha, Flood, 13 days, 0 to 100 scale (0 no effect, 100 complete control)
Procedure, shortened: as §2

[11] = test system: oat, wild; assay: Test A preemergence; type: in vivo, Avena fatua
Procedure, shortened: as §1

[12] = test system: pigweed, palmer; assay: Test A preemergence; type: in vivo, Amaranthus palmeri
Procedure, shortened: as §1

[13] = test system: oat, wild; assay: Test A postemergence; type: in vivo, Avena fatua
Procedure, shortened: as §1

[14] = test system: foxtail, giant; assay: Test A postemergence; type: in vivo, Setaria faberi
Procedure, shortened: as §1

[15] = test system: ryegrass, Italian; assay: Test A postemergence; type: in vivo, Lolium multiflorum
Procedure, shortened: as §1

[16] = test system: soybean; assay: Test A preemergence; type: in vivo, Glycine max
Procedure, shortened: as §1

[17] = test system: goosegrass; assay: Test A postemergence; type: in vivo, Eleusine indica
Procedure, shortened: as §1

[18] = test system: blackgrass; assay: Test A preemergence; type: in vivo, Alopecurus myosuroides
Procedure, shortened: as §1

[19] = test system: galium; assay: Test A postemergence; type: in vivo, Galium aparine
Procedure, shortened: as §1

[20] = test system: horseweed; assay: Test A postemergence; type: in vivo, Erigeron canadensis
Procedure, shortened: as §1

[21] = test system: wheat; assay: Test A postemergence; type: in vivo, Triticum aestivum
Procedure, shortened: as §1

[22] = test system: soybean; assay: Test A postemergence; type: in vivo, Glycine max
Procedure, shortened: as §1

[23] = test system: goosegrass; assay: Test A preemergence; type: in vivo, Eleusine indica
Procedure, shortened: as §1

[24] = test system: wheat; assay: Test A preemergence; type: in vivo, Triticum aestivum
Procedure, shortened: as §1

[25] = test system: ragweed; assay: Test A postemergence; type: in vivo, Ambrosia artemisiifolia
Procedure, shortened: as §1

[26] = test system: barnyardgrass; assay: Test B flooded paddy test; type: in vivo, Echinochloa crus-galli; conditions: 250 g ai/ha, Flood, 13 days, 0 to 100 scale (0 no effect, 100 complete control)
Procedure, shortened: as §2

[27] = test system: ragweed; assay: Test A preemergence; type: in vivo, Ambrosia artemisiifolia
Procedure, shortened: as §1

[28] = test system: corn; assay: Test A postemergence; type: in vivo, Zea mays
Procedure, shortened: as §1

[29] = 125 g ai/ha, postemergence, 10 days, visual injury, 0 to 100 scale (0 no effect, 100 complete control)
[30] = 500 g ai/ha, Postemergence, 0 to 100 scale
[31] = 125 g ai/ha, visual injury after 10 days, 0 to 100 scale, 0 is no effect, 100 is complete control
[32] = 500 g ai/ha, 0 to 100 scale (0 no effect, 100 complete control), 10 days
[33] = 500 g ai/ha, postemergence, 10 days, visual injury, 0 to 100 scale (0 no effect, 100 complete control)
[34] = 125 g ai/ha, postemergence, 10 days, 0 to 100 scale, 0 no effect, 100 complete control

Cc1cccc2c1O[C@@H](C)CN2C(=O)c1ccc(F)c(-n2cncn2)c1 [Compound 52]
Plant response rating, Blackgrass [1, 29]: 50
Plant response rating, Blackgrass [1, 30]: 60
Plant response rating, Pigweed, Palmer [2, 29]: 30
Plant response rating, Pigweed, Palmer [2, 30]: 60
Plant response rating, Sedge, Umbrella [3]: 75
Plant response rating, Kochia [4, 31]: 0
Plant response rating, Kochia [4, 32]: 70
Plant response rating, Corn [5, 31]: 20
Plant response rating, Corn [5, 32]: 40
Plant response rating, Foxtail, Giant [6, 31]: 90
Plant response rating, Foxtail, Giant [6, 32]: 100
Plant response rating, Ryegrass, Italian [7, 31]: 80
Plant response rating, Ryegrass, Italian [7, 32]: 100
Plant response rating, Kochia [8, 29]: 10
Plant response rating, Kochia [8, 30]: 60
Plant response rating, Rice [9]: 10
Plant response rating, Ducksalad [10]: 50
Plant response rating, Oat, Wild [11, 31]: 40
Plant response rating, Oat, Wild [11, 32]: 80
Plant response rating, Pigweed, Palmer [12, 31]: 0
Plant response rating, Pigweed, Palmer [12, 32]: 100
Plant response rating, Oat, Wild [13, 29]: 20
Plant response rating, Oat, Wild [13, 30]: 80
Plant response rating, Foxtail, Giant [14, 29]: 60
Plant response rating, Foxtail, Giant [14, 30]: 90
Plant response rating, Ryegrass, Italian [15, 29]: 40
Plant response rating, Ryegrass, Italian [15, 30]: 80
Plant response rating, Soybean [16, 31]: 30
Plant response rating, Soybean [16, 32]: 90
Plant response rating, Goosegrass [17, 29]: 50
Plant response rating, Goosegrass [17, 30]: 60
Plant response rating, Blackgrass [18, 31]: 50
Plant response rating, Blackgrass [18, 32]: 60
Plant response rating, Galium [19, 29]: 30
Plant response rating, Galium [19, 30]: 90
Plant response rating, Horseweed [20, 29]: 0
Plant response rating, Horseweed [20, 30]: 0
Plant response rating, Wheat [21, 29]: 30
Plant response rating, Wheat [21, 30]: 60
Plant response rating, Soybean [22, 29]: 100
Plant response rating, Soybean [22, 30]: 100
Plant response rating, Goosegrass [23, 31]: 90
Plant response rating, Goosegrass [23, 32]: 100
Plant response rating, Wheat [24, 31]: 30
Plant response rating, Wheat [24, 32]: 60
Plant response rating, Ragweed [25, 29]: 0
Plant response rating, Ragweed [25, 30]: 30
Plant response rating, Barnyardgrass [26]: 25
Plant response rating, Ragweed [27, 31]: 0
Plant response rating, Ragweed [27, 32]: 70
Plant response rating, Corn [28, 29]: 40
Plant response rating, Corn [28, 30]: 70

Cc1ccc(-n2cnc(C3CC3)n2)cc1C(=O)N1C[C@H](C)Oc2c(Cl)cccc21 [Compound 67]
Plant response rating, Blackgrass [1, 29]: 70
Plant response rating, Blackgrass [1, 30]: 90
Plant response rating, Pigweed, Palmer [2, 33]: 90
Plant response rating, Sedge, Umbrella [3]: 75
Plant response rating, Kochia [4, 31]: 80
Plant response rating, Kochia [4, 32]: 100
Plant response rating, Corn [5, 31]: 40
Plant response rating, Corn [5, 32]: 50
Plant response rating, Foxtail, Giant [6, 31]: 100
Plant response rating, Foxtail, Giant [6, 32]: 100
Plant response rating, Ryegrass, Italian [7, 31]: 100
Plant response rating, Ryegrass, Italian [7, 32]: 100
Plant response rating, Kochia [8, 29]: 70
Plant response rating, Kochia [8, 33]: 100
Plant response rating, Rice [9]: 0
Plant response rating, Ducksalad [10]: 30
Plant response rating, Oat, Wild [11, 31]: 30
Plant response rating, Oat, Wild [11, 32]: 90
Plant response rating, Pigweed, Palmer [12, 31]: 100
Plant response rating, Pigweed, Palmer [12, 32]: 100
Plant response rating, Oat, Wild [13, 33]: 60
Plant response rating, Foxtail, Giant [14, 29]: 50
Plant response rating, Foxtail, Giant [14, 33]: 90
Plant response rating, Ryegrass, Italian [15, 33]: 100
Plant response rating, Soybean [16, 31]: 50
Plant response rating, Soybean [16, 32]: 70
Plant response rating, Goosegrass [17, 29]: 30
Plant response rating, Goosegrass [17, 33]: 70
Plant response rating, Blackgrass [18, 31]: 80
Plant response rating, Blackgrass [18, 32]: 90
Plant response rating, Galium [19, 29]: 100
Plant response rating, Galium [19, 33]: 100
Plant response rating, Horseweed [20, 29]: 30
Plant response rating, Horseweed [20, 33]: 30
Plant response rating, Wheat [21, 33]: 30
Plant response rating, Soybean [22, 33]: 100
Plant response rating, Goosegrass [23, 31]: 100
Plant response rating, Goosegrass [23, 32]: 100
Plant response rating, Wheat [24, 31]: 10
Plant response rating, Wheat [24, 32]: 30
Plant response rating, Ragweed [25, 33]: 70
Plant response rating, Barnyardgrass [26]: 0
Plant response rating, Ragweed [27, 31]: 0
Plant response rating, Ragweed [27, 32]: 30
Plant response rating, Corn [28, 29]: 60
Plant response rating, Corn [28, 33]: 60

CCc1ncn(-c2ccc(CC)c(C(=O)N3C[C@H](C)Oc4c(Cl)cccc43)c2)n1 [Compound 95]
Blackgrass plant response rating [1, 34]: 80
Plant response rating, Blackgrass [1, 33]: 90
Pigweed, Palmer plant response rating [2, 34]: 50
Plant response rating, Pigweed, Palmer [2, 33]: 90
Plant response rating, Sedge, Umbrella [3]: 98
Plant response rating, Kochia [4, 31]: 60
Plant response rating, Kochia [4, 32]: 100
Plant response rating, Corn [5, 31]: 60
Plant response rating, Corn [5, 32]: 100
Plant response rating, Foxtail, Giant [6, 31]: 100
Plant response rating, Foxtail, Giant [6, 32]: 100
Plant response rating, Ryegrass, Italian [7, 31]: 100
Plant response rating, Ryegrass, Italian [7, 32]: 100
Kochia plant response rating [8, 34]: 80
Plant response rating, Kochia [8, 33]: 90
Plant response rating, Rice [9]: 0
Plant response rating, Ducksalad [10]: 95
Plant response rating, Oat, Wild [11, 31]: 80
Plant response rating, Oat, Wild [11, 32]: 90
Plant response rating, Pigweed, Palmer [12, 31]: 90
Plant response rating, Pigweed, Palmer [12, 32]: 100
Oat, Wild plant response rating [13, 34]: 70
Plant response rating, Oat, Wild [13, 33]: 80
Foxtail, Giant plant response rating [14, 34]: 90
Plant response rating, Foxtail, Giant [14, 33]: 90
Ryegrass, Italian plant response rating [15, 34]: 60
Plant response rating, Ryegrass, Italian [15, 33]: 100
Plant response rating, Soybean [16, 31]: 50
Plant response rating, Soybean [16, 32]: 100
Goosegrass plant response rating [17, 34]: 80
Plant response rating, Goosegrass [17, 33]: 90
Plant response rating, Blackgrass [18, 31]: 70
Plant response rating, Blackgrass [18, 32]: 80
Galium plant response rating [19, 34]: 100
Plant response rating, Galium [19, 33]: 100
Horseweed plant response rating [20, 34]: 0
Plant response rating, Horseweed [20, 33]: 30
Wheat plant response rating [21, 34]: 40
Plant response rating, Wheat [21, 33]: 80
Soybean plant response rating [22, 34]: 100
Plant response rating, Soybean [22, 33]: 100
Plant response rating, Goosegrass [23, 31]: 100
Plant response rating, Goosegrass [23, 32]: 100
Plant response rating, Wheat [24, 31]: 90
Plant response rating, Wheat [24, 32]: 90
Ragweed plant response rating [25, 34]: 0
Plant response rating, Ragweed [25, 33]: 50
Plant response rating, Barnyardgrass [26]: 65
Plant response rating, Ragweed [27, 31]: 0
Plant response rating, Ragweed [27, 32]: 70
Corn plant response rating [28, 34]: 60
Plant response rating, Corn [28, 33]: 90
